The values below come from PubChem BioAssay AID328 (DTP/NCI, 2004).

The assay deals with BDF1 mice, P388 leukemia ip, median survival T/C. The assay is described as follows: NCI In Vivo Anticancer Drug Screen. Data for tumor model P388 Leukemia (intraperitoneal) in B6D2F1 (BDF1) mice. The conditions noted are these: endpoint: median survival time, higher = longer survival. An outline of the steps: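 Reported as T/C, where T is the survival measurement in dosed animals and C the same measurement in vehicle controls.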

Where [1] appears, read: dose: 50.0 mg/kg/injection, schedule: Q01DX009 (ip), vehicle: saline with Tween-80.
Where [2] appears, read: dose: 100.0 mg/kg/injection, schedule: Q01DX009 (ip), vehicle: saline with Tween-80.
Setting [3] is: dose: 200.0 mg/kg/injection, schedule: Q01DX009 (ip), vehicle: saline with Tween-80.
The mark [4] stands for this setting: dose: 100.0 mg/kg/injection, schedule: Q04DX003 (ip), vehicle: saline with Tween-80.
[5] abbreviates: dose: 200.0 mg/kg/injection, schedule: Q04DX003 (ip), vehicle: saline with Tween-80.
[6] abbreviates: dose: 400.0 mg/kg/injection, schedule: Q04DX003 (ip), vehicle: saline with Tween-80.
[7] abbreviates: dose: 400.0 mg/kg/injection, schedule: Q01DX009 (ip), vehicle: saline with Tween-80.
The mark [8] stands for this setting: dose: 100.0 mg/kg/injection, schedule: Q01DX001 (ip), vehicle: saline with Tween-80.
[9] abbreviates: dose: 200.0 mg/kg/injection, schedule: Q01DX001 (ip), vehicle: saline with Tween-80.
Where [10] appears, read: dose: 400.0 mg/kg/injection, schedule: Q01DX001 (ip), vehicle: saline with Tween-80.

Molecules are shown by their SMILES. Several values for one entry are separate records, joined by “and”; a condition that tells them apart may be missing. Identical values can stand only once. Toxic doses and inconclusive results are not listed.

In the case of `COc1ccc(C(=O)OCCN(CCN(CCOC(=O)c2ccc(OC)cc2)C(=O)c2ccc(OC)cc2)C(=O)c2ccc(OC)cc2)cc1`, the T/C is, setting by setting: (dose: 6.25 mg/kg/injection, schedule: Q01DX009 (ip), vehicle: Klucel (hydroxypropylcellulose) (HPC)) 95 % of control; (dose: 12.5 mg/kg/injection, schedule: Q01DX009 (ip), vehicle: Klucel (hydroxypropylcellulose) (HPC)) 95 % of control; (dose: 25.0 mg/kg/injection, schedule: Q04DX003 (ip), vehicle: Klucel (hydroxypropylcellulose) (HPC)) 91 % of control; (dose: 50.0 mg/kg/injection, schedule: Q04DX003 (ip), vehicle: Klucel (hydroxypropylcellulose) (HPC)) 90 % of control; (dose: 100.0 mg/kg/injection, schedule: Q04DX003 (ip), vehicle: Klucel (hydroxypropylcellulose) (HPC)) 96 % of control; (dose: 200.0 mg/kg/injection, schedule: Q04DX003 (ip), vehicle: Klucel (hydroxypropylcellulose) (HPC)) 91 % of control.

As for `CCN(/C=C/C=C1C(=O)N(C)C(=O)N(C)C1=O)CC`, the T/C runs as follows: (dose: 50.0 mg/kg/injection, schedule: Q01DX009 (ip), vehicle: saline) 100 % of control; (dose: 100.0 mg/kg/injection, schedule: Q01DX009 (ip), vehicle: saline) 102 % of control; (dose: 200.0 mg/kg/injection, schedule: Q01DX009 (ip), vehicle: saline) 100 % of control.

For the compound `CCOC(=O)N1CCN(CCCOc2ccc(Cl)cc2Cc2ccccc2)CC1`, the T/C was 96 % of control under setting [1], 96 % of control under setting [2] and 105 % of control under setting [3].

As to `CNC(=S)N/N=C(/C)CCC/C(C)=N/NC(=S)NC`, the T/C is 106 % of control (dose: 6.25 mg/kg/injection, schedule: Q01DX009 (ip), vehicle: saline with Tween-80); 108 % of control (dose: 12.5 mg/kg/injection, schedule: Q01DX009 (ip), vehicle: saline with Tween-80); 99 % of control (dose: 25.0 mg/kg/injection, schedule: Q01DX009 (ip), vehicle: saline with Tween-80).

As for `Cc1cc2nc(Oc3ccccc3)nc(=O)n2o1`, the T/C was 100 % of control and 117 % of control under setting [1]; 106 % of control and 123 % of control under setting [2]; 112 % of control and 121 % of control under setting [3].

In the case of `CC(=O)Nc1cc(C)cc(CO)c1C`, the T/C (dose: 25.0 mg/kg/injection, schedule: Q04DX003 (ip), vehicle: saline with Tween-80) was 86 % of control; the T/C (dose: 50.0 mg/kg/injection, schedule: Q04DX003 (ip), vehicle: saline with Tween-80) was 96 % of control; the T/C under setting [4] was 93 % of control; the T/C under setting [5] was 88 % of control.

With `CCOC(=O)C(Br)c1cccc(OC)c1` (stereo not given), the T/C is 100 % of control under setting [4], 100 % of control under setting [5] and 110 % of control under setting [6].

Consider `O=CNNS(=O)(=O)/C=C/c1ccccc1`, for which the T/C runs as follows: (dose: 12.5 mg/kg/injection, schedule: Q01DX009 (ip), vehicle: distilled water + Tween-80) 106 % of control; (dose: 25.0 mg/kg/injection, schedule: Q01DX009 (ip), vehicle: distilled water + Tween-80) 105 % of control; (dose: 50.0 mg/kg/injection, schedule: Q01DX009 (ip), vehicle: distilled water + Tween-80) 102 % of control; (dose: 100.0 mg/kg/injection, schedule: Q01DX009 (ip), vehicle: distilled water + Tween-80) 89 % of control; (dose: 200.0 mg/kg/injection, schedule: Q01DX009 (ip), vehicle: distilled water + Tween-80) 89 % of control.

Turning to `O=C(Cl)C1=C(c2ccccc2)C1c1ccccc1` (stereo not given), the T/C is, setting by setting: under setting [1], 102 % of control; under setting [2], 101 % of control.

As to `COC(=O)[C@@]12OC[C@]34[C@H]([C@@H](O)[C@@H]1O)[C@@]1(C)CC(=O)C(O)=C(C)[C@@H]1C[C@H]3OC(=O)[C@H](OC(=O)c1ccccc1)[C@@H]24`, the T/C (dose: 31.0 micrograms/kg/injection, schedule: Q01DX009 (ip), vehicle: saline + alcohol) was 86 % of control and 90 % of control and 100 % of control; the T/C (dose: 61.0 micrograms/kg/injection, schedule: Q01DX009 (ip), vehicle: saline + alcohol) was 100 % of control; the T/C (dose: 62.0 micrograms/kg/injection, schedule: Q01DX009 (ip), vehicle: saline + alcohol) was 113 % of control; the T/C (dose: 125.0 micrograms/kg/injection, schedule: Q01DX009 (ip), vehicle: saline + alcohol) was 95 % of control and 109 % of control; the T/C (dose: 250.0 micrograms/kg/injection, schedule: Q01DX009 (ip), vehicle: saline + alcohol) is 100 % of control and 109 % of control; the T/C (dose: 500.0 micrograms/kg/injection, schedule: Q01DX009 (ip), vehicle: saline + alcohol) is 100 % of control and 113 % of control. The T/C by setting is: (dose: 1000.0 micrograms/kg/injection, schedule: Q01DX009 (ip), vehicle: saline + alcohol) 100 % of control and 118 % of control; (dose: 4000.0 micrograms/kg/injection, schedule: Q01DX009 (ip), vehicle: saline + alcohol) 109 % of control.

Turning to `CNc1nc(N)nc(Nc2ccc(I)cc2)c1N=O`, the T/C is, setting by setting: under setting [2], 90 % of control and 100 % of control; under setting [4], 95 % of control; under setting [3], 90 % of control and 91 % of control; under setting [5], 112 % of control; under setting [7], 87 % of control; under setting [6], 91 % of control.

With `O=C(/C=C/c1ccccc1)c1ccccc1`, the T/C is 106 % of control under setting [1], 104 % of control under setting [2], 108 % of control under setting [3] and 109 % of control under setting [7].

Take `CC(=O)n1ncc2ccc([N+](=O)[O-])cc21`: the T/C (dose: 6.25 mg/kg/injection, schedule: Q01DX009 (ip), vehicle: water) was 103 % of control; the T/C (dose: 12.5 mg/kg/injection, schedule: Q01DX009 (ip), vehicle: water) is 97 % of control and 111 % of control; the T/C (dose: 25.0 mg/kg/injection, schedule: Q01DX009 (ip), vehicle: water) is 94 % of control (2×) and 108 % of control; the T/C (dose: 50.0 mg/kg/injection, schedule: Q01DX009 (ip), vehicle: water) is 94 % of control and 99 % of control; the T/C (dose: 100.0 mg/kg/injection, schedule: Q01DX009 (ip), vehicle: water) is 94 % of control and 97 % of control and 105 % of control; the T/C (dose: 100.0 mg/kg/injection, schedule: Q04DX003 (ip), vehicle: water) is 111 % of control. Also, the T/C is 100 % of control (dose: 200.0 mg/kg/injection, schedule: Q01DX009 (ip), vehicle: water); 106 % of control (dose: 200.0 mg/kg/injection, schedule: Q04DX003 (ip), vehicle: water); 96 % of control (dose: 400.0 mg/kg/injection, schedule: Q01DX009 (ip), vehicle: water); 98 % of control (dose: 400.0 mg/kg/injection, schedule: Q04DX003 (ip), vehicle: water).

Take `C=Cn1ccnc1C.C=Cn1ccnc1C.CC(=O)CC(C)=O.CC(=O)CC(C)=O.[Ni]`: the T/C runs as follows: (dose: 12.5 mg/kg/injection, schedule: Q04DX002 (ip), vehicle: saline) 119 % of control; (dose: 25.0 mg/kg/injection, schedule: Q04DX002 (ip), vehicle: saline) 117 % of control; (dose: 50.0 mg/kg/injection, schedule: Q04DX002 (ip), vehicle: saline) 112 % of control.

For the compound `CCOC(=O)C1CC1c1ccccc1` (stereo not given), the T/C is 110 % of control under setting [1]; 115 % of control and 121 % of control under setting [2]; 119 % of control under setting [3]; 112 % of control under setting [7].

Consider `CC(=O)C(C(C)=O)c1cc(NS(=O)(=O)c2ccccc2)ccc1O`, for which the T/C by setting is: under setting [8], 104 % of control; under setting [9], 100 % of control; under setting [10], 95 % of control.

In the case of `CN1CCCC(C(=O)c2ccccc2)S1(=O)=O` (stereo not given), the T/C by setting is: (dose: 100.0 mg/kg/injection, schedule: Q04DX002 (ip), vehicle: saline with Tween-80) 104 % of control; (dose: 200.0 mg/kg/injection, schedule: Q04DX002 (ip), vehicle: saline with Tween-80) 114 % of control; (dose: 400.0 mg/kg/injection, schedule: Q04DX002 (ip), vehicle: saline with Tween-80) 107 % of control.

Take `Cn1ccc2nncn2c1=O`: the T/C was 115 % of control under setting [8], 95 % of control under setting [9] and 98 % of control under setting [10].

As for `O=c1cc[nH]c(=O)o1`, the T/C (dose: 19.0 mg/kg/injection, schedule: Q01DX009 (ip), vehicle: water) is 157 % of control; the T/C (dose: 28.0 mg/kg/injection, schedule: Q01DX009 (ip), vehicle: water) was 169 % of control; the T/C (dose: 42.0 mg/kg/injection, schedule: Q01DX009 (ip), vehicle: water) is 168 % of control; the T/C (dose: 63.0 mg/kg/injection, schedule: Q01DX009 (ip), vehicle: water) was 94 % of control.
